US20030213746A1, “Neurosteroids as markers for alzheimer's disease” (priority 2003, published 2003)

Assays:
hNT-PF cells = assay: Alternative pathway D synthesis; format: cell-based, human
Description: (§1) Alternative Pathway: To determine the amount of D synthesized by the alternative pathway cells were treated as previously described (15). In brief, cells were washed and oligodendrocytes and astrocytes were incubated with increasing concentrations of FeSO4 in serum free media, with and without SU 10603 (10 mM); neurons were incubated in serum free media containing 5 mM P plus FeSO4, with and without 10 mM SU 10603. After two hours, cells and media were homogenized and extracted as described above. Extracts were run on C18 TLC plates (Whatman, Clifton, N.J.) with a mobile phase of 95% methanol (v/v); radiolabeled standards for P, progesterone, and D were run on each plate, and appropriate steroid fractions were collected for each sample. TLC fractions were extracted with 2 ml diethyl ether (Fluka, New York) and evaporated. TLC extracts were assayed by specific radioimmunoassay (RIA). In separate experiments, steroids eluted from TLC were further identified by HPLC, RIA and Gas Chromatography-Mass Spectrometry (data not shown).
(§2) RIA using antibodies specific for each steroid (ICN Pharmaceuticals, Costa Mesa, Calif. Mesa) was used to measure P, progesterone and D levels. The data were analyzed using the IBM-PC RIA Data Reduction Program (version 4.1) from Jaffe and Associates (Silver Spring, Md.). Levels of β-amyloid species in AD and control brain samples were analyzed using 4G8 (Senetex PLC, Napa, Calif.), a monoclonal antibody to β-amyloid peptide that recognizes amino acids 17-24. Samples in 0.25 M sucrose buffer were run on 4-20% precast gradient gels (Novex, San Diego, Calif.). Samples were transferred to nitrocellulose membranes and incubated in primary antibody for 1 hour at room temperature at a dilution of 1:2000. Membranes were incubated in secondary antibody (1:1000) for 1-1.5 hours at room temperature and blots were visualized using ECL reagents (Amersham Pharmacia Biotech, Pisquataway, N.J.). Blots were exposed to X-OMAT film.

human brain cells = assay: D formation with SU 10603; format: cell-based; details: all human brain cells examined
Description: as §1

cell lines used = assay: P levels with SU 10603 alone; format: cell-based, human; details: any of the cell lines used, data not shown
KG-1-C and MGM-3 cells = assay: De novo steroid synthesis from 3H-mevalonactone; format: cell-based, human; details: 5 mM SU 10603, KG-1-C and MGM-3 cells, radiolabeled D
Description: De Novo Steroid Synthesis: All steroid synthesis experiments were performed with the cells at 60-80% confluency. In order to determine the ability of the cells to synthesize steroids de novo, cells were incubated for two hours at 37 C. and 6% CO2, with specific steroidogenic enzyme inhibitors as previously described (50). In brief, endogenous cholesterol synthesis was blocked by incubating cells with 20 mM Mevastatin in serum-free media (Sigma, St. Louis, Mo.) for 1 hour. 10 mM Trilostane and 5 mM SU 10603 were then added. After 30 minutes, […] ^3H-mevalonactone (33 Ci/mmol, DuPont NEN, Boston, Mass.) and 10 mM cold mevalonactone (Sigma, St. Louis, Mo.) were added. Thirty minutes later, media and cells were combined and homogenized on ice for 20 sec. Homogenates were extracted twice with 4 ml of ether:ethyl acetate (1:1, v/v, Fluka, New York, and EM Science, Gibbstown, N.J.) and evaporated. Extracts were reconstituted in 100% methanol and separated on a Beckman System Gold HPLC system, using a 126NM Solvent Module, 166NM Detector and a Beckman ultrasphere XL 3-mm Spherical 80 A pore column (Beckman, Fullerton, Calif.), eluted on a methanol gradient. Fractions were collected each minute and counted by liquid scintillation spectrometry (EG&G Wallac, Gaithersburg, Md.) to determine production of radiolabeled steroids. […]

[1] = tested on: oligodendrocytes or astrocytes; assay: D production after addition of P; format: cell-based, human; details: addition of 5 μM P, data not shown
MGM-1 cells [2] = assay: ROS measurement by 2,7-DCF fluorescence; format: cell-based, human
Description: β-Amyloid Regulation of the Alternative Pathway: MGM-1 cells were plated on 96 well (˜5,000 cells/well, for ROS measurements) or 24 well (˜15,000 cells/well, for D measurements) plates (Corning Costar, Acton, Mass.). At the same time, 1 mg Ab (Ab(1-42), AnaSpec Inc., San Jose, Calif.) was dissolved in 0.5 ml serum-free media and incubated at 4 C. for aggregation. 24 hours later, cells were incubated in DMEM with 10% fetal bovine serum and […] and 10 mM Vitamin E (Sigma, St. Louis, Mo.). Control samples were incubated in DMEM with 10% FBS. Cells were incubated at 37 C. and 6% CO2 for at least 12 hours and processed for ROS generation (see below) or D synthesis as described above for the alternative experiments.
(§3) Treatment media was removed and the cells were washed with PBS. The fluorescent probe 2,7-dichlorofluorescin diacetate (2,7-DCF, Molecular Probes, Inc., Eugene, Oreg.) was used to measure levels of oxidative stress (48). Cells were incubated with […] 2,7-DCF, fluorescence was measured at 485 nm/535 nm using the Victor^2 Multilabel Counter (EG&G Wallac, Gaithersburg, Md.) and values of cellular fluorescence were obtained.

MGM-1 cells [3] = assay: β-Amyloid regulation of the alternative pathway, D levels; format: cell-based, human
Description: as §1, with “In separate experiments, steroids eluted from TLC were further identified by HPLC, RIA and Gas Chromatography-Mass Spectrometry (data not shown).” left out
RIA using antibodies specific for each steroid (ICN Pharmaceuticals, Costa Mesa, Calif. Mesa) was used to measure P, progesterone and D levels. The data were analyzed using the IBM-PC RIA Data Reduction Program (version 4.1) from Jaffe and Associates (Silver Spring, Md.). Levels of β-amyloid species in AD and control brain samples were analyzed using 4G8 (Senetex PLC, Napa, Calif.), a monoclonal antibody to β-amyloid peptide that recognizes amino acids 17-24. […]

Human glioma cells = assay: Vitamin E treatment, ROS and D levels; format: cell-based; details: 10 mM Vitamin E, at least twelve hours, data not shown
Description: as §1, with “In separate experiments, steroids eluted from TLC were further identified by HPLC, RIA and Gas Chromatography-Mass Spectrometry (data not shown).” left out
Treatment media was removed and the cells were washed with PBS. […] Cells were incubated with […] 2,7-DCF, fluorescence was measured at 485 nm/535 nm using the Victor^2 Multilabel Counter (EG&G Wallac, Gaithersburg, Md.) and values of cellular fluorescence were obtained.
We hypothesized that high endogenous levels of ROS might be responsible for the de novo D formation in KG-1-C and MGM-3 cells. […] We measured ROS and D levels in these cells as described in the Experimental Procedures. […]

[4] = tested on: brain samples from AD and Control Patients; assay: FeSO4 treatment of brain homogenates, P and D by RIA after HPLC; parameters: species or system human
Description: (§4) Tissue Samples: For brain samples from Alzheimer's patients and control patients, samples were treated as previously described (17). In brief, aliquots of homogenates were incubated with a final concentration of 30 mM (brain) or 10 mM (serum and CSF) FeSO4 at 37° C. for 2 hours. After 2 hours, samples were extracted and purified as described for the endogenous levels, and assayed by specific radioimmunoassay.
as §2

[5] = tested on: serum from AD and control patients; assay: FeSO4 treatment of serum, DHEA by RIA; parameters: species or system human
Description: as §4
Serum and CSF Levels of DHEA: Serum was obtained from 11 patients, 5 with AD and 6 age-matched controls. Serum samples were split and treated with and without 10 mM FeSO4. Serum and CSF samples were extracted as described for the brain tissue samples, and purified by HPLC. DHEA levels were measured by specific radioimmunoassay.

KG-1-C cells = assay: Alternative pathway D synthesis; format: cell-based, human; details: increasing concentrations of FeSO4, two hours
Description: as §1, §2

MGM-1 cells [6] = assay: Alternative pathway D synthesis; format: cell-based, human; details: increasing concentrations of FeSO4, two hours
Description: as §1, §2

MGM-3 cells = assay: Alternative pathway D synthesis; format: cell-based, human; details: increasing concentrations of FeSO4, two hours
Description: as §1, §2

NHA cells [7] = assay: Alternative pathway D synthesis; format: cell-based, human; details: FeSO4, two hours, only seen at the highest dose
Description: as §1, §2

NHA cells [8] = assay: ROS measurement by 2,7-DCF fluorescence; format: cell-based, human; details: all concentrations of FeSO4 tested
Description: as §3

[9] = 30 mM FeSO4, frontal cortex, AD patients
[10] = 30 mM FeSO4, frontal cortex, control patients (C)
[11] = 30 mM FeSO4, hippocampus, AD patients
[12] = 30 mM FeSO4, hippocampus, control patients (C)
[13] = 30 mM FeSO4, hypothalamus, AD patients
[14] = 30 mM FeSO4, hypothalamus, control patients (C)

O=C1c2cc(Cl)ccc2CCC1c1cccnc1 (centres unmarked) [SU 10603]
effect on D levels (hNT-PF cells; SU 10603 treatment): not affected | inhibition of D formation (human brain cells): did not inhibit | effect on P levels (cell lines used): no effect | blocking endogenous D production (KG-1-C and MGM-3 cells): not effective

CC(=O)[C@H]1CC[C@H]2[C@@H]3CC=C4C[C@@H](O)CC[C@]4(C)[C@H]3CC[C@]12C [P, pregnenolone]
D production [1]: did not result in increased D production

Vitamin E
effect on Aβ-induced increase in ROS (MGM-1 cells [2]; 10 mM Vitamin E with 50 mM Aβ, MGM-1, p=0.054): partially blocked | effect on Aβ-induced increase in D levels (MGM-1 cells [3]; 10 mM Vitamin E with 50 mM Aβ, MGM-1, p<0.05 versus Ab): blocked | D levels compared to untreated cells (Human glioma cells): lowered | ROS levels compared to untreated cells (Human glioma cells): lowered

O=S(=O)([O-])[O-].[Fe+2] [FeSO4]
D (pg/mg protein) [4, 9]: 219.3 pg/mg protein | P (pg/mg protein) [4, 9]: 10485.5 pg/mg protein | D (pg/mg protein) [4, 10]: 70.0 pg/mg protein | P (pg/mg protein) [4, 10]: 7339.8 pg/mg protein | D (pg/mg protein) [4, 11]: 241.7 pg/mg protein | P (pg/mg protein) [4, 11]: 11584.0 pg/mg protein | D (pg/mg protein) [4, 12]: 128.3 pg/mg protein | P (pg/mg protein) [4, 12]: 8529.3 pg/mg protein | D (pg/mg protein) [4, 13]: 180.8 pg/mg protein | P (pg/mg protein) [4, 13]: 6640.3 pg/mg protein | D (pg/mg protein) [4, 14]: 61.4 pg/mg protein | P (pg/mg protein) [4, 14]: 7707.2 pg/mg protein | effect on D levels ([5]; 10 mM FeSO4, AD serum): little effect | increase in D levels ([5]; 10 mM FeSO4, control serum): 1.5-3 fold | effect on D levels (KG-1-C cells): did not significantly affect | D synthesis via the alternative pathway (MGM-1 cells [6]): has the ability to make D via the alternative pathway | effect on D levels (MGM-3 cells): did not significantly affect | effect on D formation (NHA cells [7]): significant effect | effect on D levels (hNT-PF cells; increasing concentrations of FeSO4 plus 5 mM P): not affected | ROS levels above untreated cells (MGM-1 cells [2]; all concentrations of FeSO4 tested, MGM-1): significant increase | ROS levels above untreated cells (NHA cells [8]): significant increase

Aβ: β-amyloid peptide Ab(1-42), AnaSpec Inc., aggregated; a component of Alzheimer's disease plaques
2,7-DCF fluorescence (ROS) versus control levels (MGM-1 cells [2]; 50 mM Aβ, MGM-1, p<0.01): significant increase | D levels versus control (MGM-1 cells [3]; 50 mM Aβ, MGM-1, p<0.01): increased D levels significantly over control
